Holding throughout (format): cell-based
The subject of test [1] is MDA-MB-435 (human breast cancer cells). Nature of the test: MTT in vitro anti-tumor activity test, MDA-MB-435.
The test system of test [2] is A549 (human lung cancer cells). Nature of the test: MTT in vitro anti-tumor activity test, A549.
Test [3] has as its system Colo205 (human colon cancer cells). Nature of the test: MTT in vitro anti-tumor activity test, Colo205.
Test [4] deals with HepG2 (human hepatoma cells). Nature of the test: MTT in vitro anti-tumor activity test, HepG2.
[5] abbreviates: MDA-MB-435, 100 μg/mL, MTT, 72 h.
The mark [6] stands for this setting: MDA-MB-435 human breast cancer cells, MTT, 72 h.
Where [7] appears, read: A549 human lung cancer cells, MTT, 72 h.
Where [8] appears, read: Colo205 human colon cancer cells, MTT, 72 h.
Where [9] appears, read: HepG2 human hepatoma cells, MTT, 72 h.
The mark [10] stands for this setting: MTT assay, 72 h incubation, MDA-MB-435 cells.
[11] abbreviates: inhibition at 100 μg/mL, MTT assay, 72 h, MDA-MB-435 cells.
The mark [12] stands for this setting: MTT assay, 72 h incubation, A549 cells.
Setting [13] is: inhibition at 100 μg/mL, MTT assay, 72 h, A549 cells.
The mark [14] stands for this setting: MTT assay, 72 h incubation, Colo205 cells.
Where [15] appears, read: inhibition at 100 μg/mL, MTT assay, 72 h, Colo205 cells.
Setting [16] is: MTT assay, 72 h incubation, HepG2 cells.
The mark [17] stands for this setting: inhibition at 100 μg/mL, MTT assay, 72 h, HepG2 cells.

SMILES strings stand for the structures.

With `CN(C)CCOc1nc2ccccc2c2c1-c1ccc(Cl)cc1C2=O` [Compound 7], in test [1] (setting [5]), the “MDA-MB-435 100 μg/mL IC %” value stood at 100%. Also, the “MDA-MB-435 IC50” value in test [1] (setting [6]) was 4.91 µg/mL. Also, the “A549 100 μg/mL IC %” value in test [2] (A549, 100 μg/mL, MTT, 72 h) is given as 90.29%. Also, the “A549 IC50” value in test [2] (setting [7]) was 15.12 µg/mL. The “Colo205 100 μg/mL IC %” value in test [3] (Colo205, 100 μg/mL, MTT, 72 h) came out at 100%. Further, the “Colo205 IC50” value in test [3] (setting [8]) amounted to 6.46 µg/mL. Further, the “HepG2 100 μg/mL IC %” value in test [4] (HepG2, 100 μg/mL, MTT, 72 h) worked out at 100%. The “HepG2 IC50” value in test [4] (setting [9]) came out at 22.95 µg/mL.

For `COc1ccc2nc(OCCn3ccnc3)c3c(c2c1)C(=O)c1cc(Br)ccc1-3` [Compound 19], the “MDA-MB-435 100 μg/mL IC %” value in test [1] (setting [5]) came to 59.37%. For the same compound, the “MDA-MB-435 IC50” value in test [1] (setting [6]) turned out to be 42.24 µg/mL. In addition, the “A549 100 μg/mL IC %” value in test [2] (A549, 100 μg/mL, MTT, 72 h) amounted to 17.66%. The “A549 IC50” value in test [2] (setting [7]) is above 100 µg/mL. The “Colo205 100 μg/mL IC %” value in test [3] (Colo205, 100 μg/mL, MTT, 72 h) is 80.89%. In addition, the “Colo205 IC50” value in test [3] (setting [8]) came to 18.70 µg/mL. Moreover, the “HepG2 100 μg/mL IC %” value in test [4] (HepG2, 100 μg/mL, MTT, 72 h) was 37.50%. Further, the “HepG2 IC50” value in test [4] (setting [9]) is above 100 µg/mL.

As to `CCN(CC)CCn1c(=O)c2c(c3ccccc31)C(=O)c1cc(Cl)ccc1-2` [Compound 36], in test [1] (setting [10]), the “MDA-MB-435 IC50” value came out at 28.86 µg/mL. For the same compound, in test [1] (setting [11]), the “MDA-MB-435 100 μg/mL IC %” value is 83.69%. Besides, in test [2] (setting [12]), the “A549 IC50” value turned out to be 78.22 µg/mL. In addition, in test [2] (setting [13]), the “A549 100 μg/mL IC %” value was determined as 61.01%. Moreover, the “Colo205 IC50” value in test [3] (setting [14]) turned out to be 28.58 µg/mL. For the same compound, the “Colo205 100 μg/mL IC %” value in test [3] (setting [15]) came out at 79.84%. The “HepG2 IC50” value in test [4] (setting [16]) came out at 61.69 µg/mL. For the same compound, in test [4] (setting [17]), the “HepG2 100 μg/mL IC %” value is listed as 59.74%.

Regarding `O=C1c2cc(Cl)ccc2-c2c(OCCN3CCCC3)nc3ccccc3c21` [Compound 9], the “MDA-MB-435 100 μg/mL IC %” value in test [1] (setting [5]) was determined as 100%. Besides, in test [1] (setting [6]), the “MDA-MB-435 IC50” value was determined as 12.28 µg/mL. In addition, the “A549 100 μg/mL IC %” value in test [2] (A549, 100 μg/mL, MTT, 72 h) came out at 100%. Moreover, the “A549 IC50” value in test [2] (setting [7]) was 5.78 µg/mL. Further, the “Colo205 100 μg/mL IC %” value in test [3] (Colo205, 100 μg/mL, MTT, 72 h) worked out at 71.11%. Also, the “Colo205 IC50” value in test [3] (setting [8]) is 7.10 µg/mL. Besides, the “HepG2 100 μg/mL IC %” value in test [4] (HepG2, 100 μg/mL, MTT, 72 h) is 82.92%. Also, the “HepG2 IC50” value in test [4] (setting [9]) amounted to 15.99 µg/mL.

Take `COc1ccc2c(c1)c1c(c(=O)n2CCn2ccnc2)-c2ccc(Br)cc2C1=O` [Compound 43]: in test [1] (setting [10]), the “MDA-MB-435 IC50” value was 83.60 µg/mL. Besides, the “MDA-MB-435 100 μg/mL IC %” value in test [1] (setting [11]) turned out to be 53.07%. Besides, the “A549 IC50” value in test [2] (setting [12]) is above 100 µg/mL. Besides, the “A549 100 μg/mL IC %” value in test [2] (setting [13]) stood at 4.26%. For the same compound, the “Colo205 IC50” value in test [3] (setting [14]) was determined as 34.21 µg/mL. Further, the “Colo205 100 μg/mL IC %” value in test [3] (setting [15]) was 87.42%. Moreover, the “HepG2 IC50” value in test [4] (setting [16]) was above 100 µg/mL. In addition, in test [4] (setting [17]), the “HepG2 100 μg/mL IC %” value is 9.73%.

For the compound `COc1ccc2c(c1)-c1c(c3cc(OC)ccc3n(CCN(C)C)c1=O)C2=O` [Compound 42], the “MDA-MB-435 IC50” value in test [1] (setting [10]) came to 3.12 µg/mL. Further, the “MDA-MB-435 100 μg/mL IC %” value in test [1] (setting [11]) is 100%. Besides, the “A549 IC50” value in test [2] (setting [12]) stood at 8.03 µg/mL. The “A549 100 μg/mL IC %” value in test [2] (setting [13]) is given as 87.75%. Also, the “Colo205 IC50” value in test [3] (setting [14]) was 1.27 µg/mL. Also, in test [3] (setting [15]), the “Colo205 100 μg/mL IC %” value was 100%. The “HepG2 IC50” value in test [4] (setting [16]) came to 3.77 µg/mL. The “HepG2 100 μg/mL IC %” value in test [4] (setting [17]) was found to be 100%.

For the compound `O=C1c2cc(Cl)ccc2-c2c(OCCn3ccnc3)nc3ccccc3c21` [Compound 10], the “MDA-MB-435 100 μg/mL IC %” value in test [1] (setting [5]) is 99.70%. The “MDA-MB-435 IC50” value in test [1] (setting [6]) amounted to 15.02 µg/mL. In addition, the “A549 100 μg/mL IC %” value in test [2] (A549, 100 μg/mL, MTT, 72 h) came to 97.57%. Besides, the “A549 IC50” value in test [2] (setting [7]) stood at 14.48 µg/mL. Further, in test [3] (Colo205, 100 μg/mL, MTT, 72 h), the “Colo205 100 μg/mL IC %” value stood at 80.16%. Also, the “Colo205 IC50” value in test [3] (setting [8]) came to 31.06 µg/mL. For the same compound, the “HepG2 100 μg/mL IC %” value in test [4] (HepG2, 100 μg/mL, MTT, 72 h) is given as 92.06%. In addition, the “HepG2 IC50” value in test [4] (setting [9]) is 34.93 µg/mL.

With `COc1cc2nc(OCCN(C)C)c3c(c2cc1OC)C(=O)c1cc(Cl)ccc1-3` [Compound 26], in test [1] (setting [5]), the “MDA-MB-435 100 μg/mL IC %” value worked out at 100%. In addition, in test [1] (setting [6]), the “MDA-MB-435 IC50” value is 10.51 µg/mL. Also, in test [2] (A549, 100 μg/mL, MTT, 72 h), the “A549 100 μg/mL IC %” value turned out to be 100%. For the same compound, in test [2] (setting [7]), the “A549 IC50” value was 6.89 µg/mL. In addition, the “Colo205 100 μg/mL IC %” value in test [3] (Colo205, 100 μg/mL, MTT, 72 h) turned out to be 100%. Further, the “Colo205 IC50” value in test [3] (setting [8]) amounted to 1.45 µg/mL. Moreover, the “HepG2 100 μg/mL IC %” value in test [4] (HepG2, 100 μg/mL, MTT, 72 h) is reported as 97.91%. The “HepG2 IC50” value in test [4] (setting [9]) amounted to 11.27 µg/mL.

For the compound `COc1cc2nc(OCCCN(C)C)c3c(c2cc1OC)C(=O)c1cc(Cl)ccc1-3` [Compound 29], in test [1] (setting [5]), the “MDA-MB-435 100 μg/mL IC %” value is recorded as 100%. Also, the “MDA-MB-435 IC50” value in test [1] (setting [6]) was found to be 1.45 µg/mL. The “A549 100 μg/mL IC %” value in test [2] (A549, 100 μg/mL, MTT, 72 h) is 100%. For the same compound, in test [2] (setting [7]), the “A549 IC50” value came to 1.04 µg/mL. Further, in test [3] (Colo205, 100 μg/mL, MTT, 72 h), the “Colo205 100 μg/mL IC %” value is 98.69%. Moreover, in test [3] (setting [8]), the “Colo205 IC50” value came to 1.47 µg/mL. Moreover, in test [4] (HepG2, 100 μg/mL, MTT, 72 h), the “HepG2 100 μg/mL IC %” value is given as 91.20%. Also, in test [4] (setting [9]), the “HepG2 IC50” value is 3.71 µg/mL.

For the origin of these results see patent publication US9181193B2, “Indenoquinolone compound, preparation method and use thereof” (Second Military Medical University, PLA, priority 2010, dated 2015).
